Results: US20120094939A1, “ANTI-VIRAL COMPOUNDS, COMPOSITIONS AND METHODS” (priority 2007, published 2012)
Like-named read-outs stand apart in the source and are kept apart here.

Key:
[1] = test system: OR6 cells harboring full-length genotype 1b HCV replicon ORN/C-5B/KE (HCV RNA replication); assay: microbe, parasite or virus in culture; format: cell-based, Hepatitis C virus (strain HCV—O; conditions: 48 hours; for antiviral activity (in words): OR6 full-length replicon
Description: (§1) HCV Replicon System-Secondary Assays. For validation, OR6 cells stably harboring the full-length genotype 1 replicon, ORN/C-5B/KE9 were used to examine compound activity in a more authentic viral polyprotein context. This replicon was derived from the 1B-2 strain (strain HCV—O, genotype 1b), in which the Renilla luciferase gene is introduced as a fusion protein with neomycin to facilitate the monitoring of HCV replication. This construct contains a tissue culture adaptive mutation in the NS3 region. Cells were cultured in an identical manner to the Huh7/Rep-Feo cells.
(§2) Secondary Assays-Hit Validation. Several hits from primary HTS, as well as functionally related compounds, were purchased from Sigma (St. Louis, Mo.), Calbiochem (San Diego, Calif.), and Microsource (Gaylordsville, Conn.). […] Ten mM of stock solutions of the individual compounds to be tested was prepared in the appropriate solvent (DMSO, ethanol, or H2O, according to the manufacturer's information) and stored at −20° C. Cells were seeded into 96-well plates at a density of 2000 cells/well in 100 μL of medium. The cells were incubated for 24 hours at 37° C. to obtain the optimal level of adherence. Solutions of candidate hit compounds were added to wells to achieve final concentrations of 0.1, 1, 10, 50, and 100 μM. The final concentration of DMSO or ethanol in every well was 1% or less by volume. Mock solutions were used as a negative control. PEG-IFN and ribavirin were used as positive controls at various concentrations, alone and in combination. The plates were then incubated at 37° C. with 5% CO2 for 48 hours before they were analyzed. Luminescent signal was generated using the Renilla luciferase assay kit (Promega) according to the manufacturer's instructions. Signal was then detected using a LumiCount (Packard BioScience Company) luminometer. Cell viability was assessed using CellTiter-Glo (Promega), following the manufacturer's instructions. All experiments were performed in triplicate.
(§3) Secondary Assays-Data Analysis. Values were presented as a percentage of mock treated control, which was arbitrarily set at 100%. Data were expressed as the mean (±) SD. […] Synergy calculations were performed using CalcuSyn (Biosoft; Cambridge, England).
as §1, with “System—Secondary Assays:” for “System-Secondary Assays.”, “For replicon” for “For”, “ORN/C-5B/KE” for “ORN/C-5B/KE9”, “(Burke J. Am. Chem. Soc. (2004) 126:14095-14104).” for “to examine compound activity in a more authentic viral polyprotein context.”, “the Neomycin resistance cassette” for “neomycin”
(§4) Secondary Assays—Hit Validation: 10 mM of stock solutions of the individual compounds to be tested were prepared in DMSO and stored at −20° C. Cells were seeded into 96-well plates at a density of 2,000 cells/well in 100 μl of medium. The cells were incubated for 24 hours at 37° C. to obtain the optimal level of adherence. Solutions of candidate hit compounds were added to wells to achieve varying final concentrations between 0.01 and 100 μM. The final concentration of DMSO or ethanol in every well was 1% or less by volume. Mock solutions were used as a negative control. Peginterferon-alfa-2b (PEG-Intron; Schering Corp.; Kenilworth, N.J.) and ribavirin (Sigma; St. Louis, Mo.) were used as positive controls at various concentrations, alone and in combination. The plates were then incubated at 37° C. with 5% CO2 for 48 hours before they were analyzed. Luminescent signal was generated using the Renilla luciferase assay kit (Promega; Madison, Wis.) according to the manufacturer's instructions. Signal was then detected using a LumiCount™ (Packard BioScience Company; Downers Grove, Ill.) luminometer.

OR6 cells = assay: Secondary assay cell viability (CellTiter-Glo); conditions: 48 hours
Description: as §2, §3
as §4, with “luminometer. Cell viability was assessed using CellTiter-Glo (Promega; Madison, Wis.), following the manufacturer's instructions. All experiments were performed in triplicate. Values were presented as a percentage of mock treated control, which was arbitrarily set at 100%. Data were expressed as the mean±SD.” for “luminometer.”
Secondary Assays—Data Analysis: Values were presented as a percentage of mock treated control, which was arbitrarily set at 100%. Data were expressed as the mean±SD.

[2] = test system: Huh7/Rep-Feo HCV replicon (HCV RNA replication); format: cell-based, Hepatitis C virus (strain HCV—N, genotype 1b)
Description: Development of the Huh7/Rep-Feo replicon assay. […] This replicon was derived from a chimpanzee infectious clone (strain HCV—N, genotype 1b). In this replicon, the structural genes have been replaced by a reporter gene. The chimeric reporter gene Feo encodes the firefly luciferase protein fused in-frame with neomycin phosphotransferase. This Huh7/Rep-Feo cell supports high levels of autonomous HCV RNA replication because it was derived from the HCV—N strain, which carries an adaptive mutation in NSSA that confers highlevel replication in tissue culture. Furthermore, the level of luciferase correlates well with levels of HCV RNA production, so that luciferase can be used as a reliable surrogate marker for HCV replication. The use of luciferase as a reporter permits quantitative and highthroughput detection of HCV replication levels. The specific use of firefly luciferase makes this replicon especially well-suited for automation, because the luciferase reagent can be added directly to the cell culture system prior to signal detection without the need for cell lysis, washing, or aspiration.
HCV Replicon System-Primary Screening. […] Briefly, this replicon harbors a subgenomic HCV genotype 1b sequence, fused to firefly luciferase, stably replicating under neomycin selection. Cells were propagated in Dulbecco's Modified Eagle's medium (DMEM) containing 10% fetal bovine serum (FBS) supplemented with 1% penicillin-streptomycin, and 500 μg of Geneticin (Invitrogen Corp., Carlsbad, Calif.)/mL. Cells were cultured in a 37° C., 5% CO2-humidified incubator for all experiments. To decrease day-today variability in the assay, a large homogenous population of subconfluent cells was passaged so that a similar lot of cells could be used throughout the HTS assay.
Primary Screening-HTS. Information about the library of known bioactive compounds that was screened and the general automated HTS protocol is available at http://www.broad.harvard.edu/chembio/index.html (see FIG. 10 for list of primary HTS with known bioactives library). Based on the results of optimization experiments in the 384-well plate format, the general HTS protocol was adapted as follows. Unless otherwise indicated, cells were incubated at all times in a humidified environment with 5% CO2 at 37° C. The assay was initiated by plating 30 μL of medium containing 2000 cells/well into white 384-well opaque-bottom plates (Nunc, Rochester, N.Y.) using an automated plate filler (Bio-Tek uFiller; Winsooki, Vt.) and allowing the cells to adhere for 24 hours. One hundred nL of compound stock solutions in DMSO was transferred from stock plates into the 384-well assay plates using an automated pin-based compound transfer robot (CyBio CyBi-Well vario; Woburn, Mass.). The final compound concentration in each well was estimated to be approximately 10-50 μM, with most compounds at 33 μM. The wells contained 0.33% DMSO by volume. The cells were then incubated for another 48 hours. The luminescent signal from each plate was detected using an automated plate reader (Perkin-Elmer Envision 1; Wellesley, Mass.). This screen was performed in duplicate. For negative controls, entire DMSO-treated control plates were employed, in addition to DMSO-only control wells that were incorporated into each compound assay plate. The cells were assayed for luciferase activity using the Bright-Glo Luciferase assay system (Promega), following the manufacturer's instructions. As a counter-screen, cell viability was assessed using the CellTiterGlo Luminescent cell viability assay (Promega) following the manufacturer's instructions.
Computational Data Analysis-Primary Screening. For each replicate, a mock-treatment distribution based on the total population of mock (DMSO) controls in that replicate was built (FIG. 11).

[3] = test system: Huh7/Rep-Feo HCV replicon; assay: Optimization of Huh7/Rep-Feo cells for 96-/384-well plates with PEG-IFN as positive control; format: cell-based, Hepatitis C virus (strain HCV—N, genotype 1b); conditions: 96-well plates; measurements at 24, 48, 72 hours
Description: Optimization of Huh-7/Rep-Feo Cells for the 384-Well Plate Format. The Huh7/Rep-Feo cells were first optimized for the 96-well plate format (FIG. 9). […] Cells were seeded at densities of 5000 and 10,000 cells/well in 100_L of medium in 96-well plates. The cells were allowed to attach overnight (approximately 24 hours) before addition of PEG-IFN at various concentrations (day 0). The plates were then incubated further, and measurements were taken at 24, 48, and 72 hours. At each time point, the plates were equilibrated at room temperature, an equal volume of Bright-Glo reagent (Promega, Madison, Wis.) was added, and the plates were read in a LumiCount (Packard BioScience Company, Downers Grove, Ill.) luminometer. […] Results were expressed as the mean of three replicate wells. […]
Optimization of Huh-7/Rep-Feo cells for the 384-well plate format: Cells were propagated in Dulbecco's Modified Eagle's medium (DMEM) containing 10% fetal bovine serum (FBS) supplemented with 1% penicillin-streptomycin, and 500 μg of Geneticin (Invitrogen Corp., Carlsbad, Calif.)/ml. […] At each time point, the plates were equilibrated at room temperature, an equal volume of Bright-Glo reagent (Promega, Madison, Wis.) was added, and the plates were read in a LumiCount™ (Packard BioScience Company, Downers Grove, Ill.) luminometer. […] Results were expressed as the mean of three replicate wells. […]

Row | Compound | antiviral activity (in words) [1] | cytotoxicity (in words) (OR6 cells) | other results
1 | O=C1[C@@]2(CO)C=C(I)C(CC2c2ccccc2)[C@@]12CO2 (some centres unmarked) [SM_A14B5] |  |  | IC50 ([1]; Hepatitis C virus, OR6, 48 h, read-out: IC50 (HCV RNA replication, luciferase), OR6 full-length genotype 1b replicon): ~3.5 µM; concentrations at which cytotoxic effects were exhibited (OR6 cells): above 30 μM
2 | CC[C@H](C)C(=O)O[C@H]1CCC=C2C=C[C@H](C)[C@H](CC[C@@H]3C[C@@H](O)CC(=O)O3)[C@H]21 [Mevastatin, mevastatin] | weakly inhibitory | not cytotoxic | 
3 | Clc1cccc(Nc2nnc(-c3ccccc3)c3ccccc23)c1 [MY-5445] | decreased the luciferase signal in a dose-related manner | significant cytotoxicity | primary screen hit result (in words) ([2]; known bioactives library, approximately 10-50 μM, most at 33 μM): Antiviral
4 | Peginterferon-alfa-2b [PEG-IFN] |  |  | antiviral activity over time (in words) [3]: progressively increased over time
5 | C[S+]([O-])c1ccc(-c2nc(-c3ccncc3)c(-c3ccc(F)cc3)[nH]2)cc1 (centres unmarked) [SB 203580] | antiviral activity at a concentration of 10 μM | cytotoxicity at higher concentrations | primary screen hit result (in words) [2]: Antiviral
